Drawing on patent US9951077B2, “Aminopyridazinone compounds as protein kinase inhibitors” (ETERNITY BIOSCIENCE INC., priority 2014, dated 2018), this text covers IC50 for 21 molecules.

Broadly, the IC50 is the concentration that gives 50% inhibition.

Chain of Btk (Q06187 whole entry): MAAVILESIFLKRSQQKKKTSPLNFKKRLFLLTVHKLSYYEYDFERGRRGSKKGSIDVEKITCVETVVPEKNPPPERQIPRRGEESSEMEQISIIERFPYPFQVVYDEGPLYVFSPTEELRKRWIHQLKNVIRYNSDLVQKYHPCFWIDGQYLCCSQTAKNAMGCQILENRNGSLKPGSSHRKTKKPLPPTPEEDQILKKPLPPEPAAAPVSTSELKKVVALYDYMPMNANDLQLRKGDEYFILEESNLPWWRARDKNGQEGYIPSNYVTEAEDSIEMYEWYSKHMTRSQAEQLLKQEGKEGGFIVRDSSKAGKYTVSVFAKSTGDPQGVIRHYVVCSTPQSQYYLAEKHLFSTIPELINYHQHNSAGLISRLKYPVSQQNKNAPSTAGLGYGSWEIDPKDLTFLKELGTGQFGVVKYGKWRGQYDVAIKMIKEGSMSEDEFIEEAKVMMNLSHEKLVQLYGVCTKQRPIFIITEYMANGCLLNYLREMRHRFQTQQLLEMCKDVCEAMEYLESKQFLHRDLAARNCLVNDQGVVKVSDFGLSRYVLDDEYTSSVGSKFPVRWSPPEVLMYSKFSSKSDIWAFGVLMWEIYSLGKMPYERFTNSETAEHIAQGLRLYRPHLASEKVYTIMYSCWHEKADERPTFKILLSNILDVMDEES

The assay concerns the target Btk (Homo sapiens (Human), UniProt Q06187). Description: Btk kinase assay (ADP-Glo). The class given is biochemical. To be noted: ATP 1.2 μM, 60 minutes, room temperature; read-out: BTK enzyme IC50. As to the method: The Btk kinase assay was performed using a ADP-Glo Btk kinase assay kit purchased from Promega (Madison, Wis.). The assay was conducted according to the protocols provided in the assay kit. In brief, the enzyme reaction was carried out in the kinase reaction buffer containing Btk (2 ng/μl), ATP (1.2 μM), poly GT peptide (0.3 μM), DTT (40 nM), MnCl2 (1.4 mM), and 1×kinase buffer (included in the kit) in the presence or absence of the tested articles at various concentrations in 384-well plate at room temperature (22±1° C.) for 60 minutes. The final reaction volume for each reaction was 10 μl. Then, 4 μl of ADP-Glo reagent (included in the kit) was added into the reaction and the plate was further incubated for another 40 minutes to terminate the reaction and deplete the remaining ATP. Finally, 10 μl of the kinase detection reagent was added into each reaction to simultaneously convert ADP to ATP and allow the newly synthesized ATP to be measured by a plate-reading luminometer (Victor X5 2030 multilabel reader, PerkinElmer). IC50 value was calculated using appropriate programs in GraphPad Prism by plotting the logarithm of the concentration versus percent inhibition as compared with a vehicle (DMSO) control.
(ADP-Glo first removes unused ATP, then detects ADP through luciferase.)
As to `COC/C=C/C(=O)N1CCC[C@@H](n2cc(-c3ccc(Oc4ccccc4)cc3)c3c(N)n[nH]c(=O)c32)C1` [Example 37, 4-amino-1-[(3R)-1-[(E)-4-methoxybut-2-enoyl]-3-piperidyl]-3-(4-phenoxyphenyl)-6H-pyrrolo[2,3-d]pyridazin-7-one], the IC50 was 1000 to 100000 nM.

With `C=CC(=O)N1CCC(F)C(n2cc(-c3ccc(Oc4ccccc4)cc3)c3c(N)n[nH]c(=O)c32)C1` (stereo not drawn) [Example 13, 1-(1-acryloyl-4-fluoropiperidin-3-yl)-4-amino-3-(4-phenoxyphenyl)-1H-pyrrolo[2,3-d]pyridazin-7(6H)-one], the IC50 is not above 10 nM.

Consider `C=CC(=O)N1CCC[C@@H](n2cc(-c3ccc(Oc4ccccc4F)cc3)c3c(N)n[nH]c(=O)c32)C1` [Example 56, (R)-1-(1-acryloylpiperidin-3-yl)-4-amino-3-(4-(2-fluorophenoxy)phenyl)-1H-pyrrolo[2,3-d]pyridazin-7(6H)-one], for which the IC50 was not above 10 nM.

For `N#CN1CCC[C@@H](n2cc(-c3ccc(Oc4ccccc4)c(F)c3)c3c(N)n[nH]c(=O)c32)C1` [Example 85, (R)-3-(4-amino-3-(3-fluoro-4-phenoxyphenyl)-7-oxo-6,7-dihydro-1H-pyrrolo[2,3-d]pyridazin-1-yl)piperidine-1-carbonitrile], the IC50 fell in the range of 10 to 1000 nM.

Turning to `CN(C)C/C=C/C(=O)N1CCC[C@@H](n2cc(-c3ccc(Oc4c(F)cccc4F)cc3)c3c(N)n[nH]c(=O)c32)C1` [Example 59, 4-amino-3-[4-(2,6-difluorophenoxy)phenyl]-1-[(3R)-1-[(E)-4-(dimethylamino)but-2-enoyl]-3-piperidyl]-6H-pyrrolo[2,3-d]pyridazin-7-one], the IC50 fell in the range of 10 to 1000 nM.

For the molecule `CN(C)C/C=C/C(=O)N1CCCC(n2cc(-c3ccc(Oc4ccc(F)cc4)cc3)c3c(N)n[nH]c(=O)c32)C1` (stereo not drawn) [Example 61, 4-amino-1-[1-[(E)-4-(dimethylamino)but-2-enoyl]-3-piperidyl]-3-[4-(4-fluorophenoxy)phenyl]-6H-pyrrolo[2,3-d]pyridazin-7-one], the IC50 fell in the range of 10 to 1000 nM.

In the case of `CC#CC(=O)N1CC[C@@H](n2cc(-c3ccc(Oc4c(F)cccc4Cl)cc3)c3c(N)n[nH]c(=O)c32)C1` [Example 94, (R)-4-amino-1-(1-(but-2-ynoyl)pyrrolidin-3-yl)-3-(4-(2-chloro-6-fluorophenoxy)phenyl)-1H-pyrrolo[2,3-d]pyridazin-7(6H)-one], the IC50 is 10 to 1000 nM.

`C=CC(=O)N1C[C@H](n2cc(-c3ccc(Oc4ccccc4)cc3)c3c(N)n[nH]c(=O)c32)CC(F)(F)C1` [Example 14, (R)-1-(1-acryloyl-5,5-difluoropiperidin-3-yl)-4-amino-3-(4-phenoxyphenyl)-1H-pyrrolo[2,3-d]pyridazin-7(6H)-one]: the IC50 is not above 10 nM.

As for `C=CC(=O)N1CC(Cn2cc(-c3ccc(Oc4ccccc4)cc3)c3c(N)n[nH]c(=O)c32)C1` [Example 12, 4-amino-3-(4-phenoxyphenyl)-1-[(1-prop-2-enoylazetidin-3-yl)methyl]-6H-pyrrolo[2,3-d]pyridazin-7-one], the IC50 fell in the range of 10 to 1000 nM.

Regarding `C=CC(=O)N1CCCC(n2cc(-c3ccc(Oc4ccc(Cl)cc4)cc3)c3c(N)n[nH]c(=O)c32)C1` (stereo not drawn) [Example 64, 1-(1-acryloylpiperidin-3-yl)-4-amino-3-(4-(4-chlorophenoxy)phenyl)-1H-pyrrolo[2,3-d]pyridazin-7(6H)-one], the IC50 is 10 to 1000 nM.

Consider `Nc1n[nH]c(=O)c2c1c(-c1ccc(Oc3ccccc3)cc1)cn2[C@@H]1CCCN(C(=O)CCl)C1` [Example 22, 4-amino-1-[(3R)-1-(2-chloroacetyl)-3-piperidyl]-3-(4-phenoxyphenyl)-6H-pyrrolo[2,3-d]pyridazin-7-one], for which the half-maximal inhibitory concentration (IC50) was 10 to 1000 nM.

`CNC/C=C/C(=O)N1CCC[C@@H](n2cc(-c3ccc(Oc4ccccc4)cc3)c3c(N)n[nH]c(=O)c32)C1` [Example 18, 4-amino-1-[(3R)-1-[(E)-4-(methylamino)but-2-enoyl]-3-piperidyl]-3-(4-phenoxyphenyl)-6H-pyrrolo[2,3-d]pyridazin-7-one]: the IC50 was not above 10 nM.

`C=CC(=O)N1CCC[C@@H](n2cc(-c3ccc(Oc4ccc(Cl)c(Cl)c4)c(OC)c3)c3c(N)n[nH]c(=O)c32)C1` [Example 72, (R)-1-(1-acryloylpiperidin-3-yl)-4-amino-3-(4-(3,4-dichlorophenoxy)-3-methoxyphenyl)-1H-pyrrolo[2,3-d]pyridazin-7(6H)-one]: the IC50 lay in the range of 10 to 1000 nM.

In the case of `CC#CC(=O)N1CCC[C@@H](n2cc(-c3ccc(Oc4c(F)cccc4F)cc3)c3c(N)n[nH]c(=O)c32)C1` [Example 117, (R)-4-amino-1-(1-(but-2-ynoyl)piperidin-3-yl)-3-(4-(2,6-difluorophenoxy)phenyl)-1H-pyrrolo[2,3-d]pyridazin-7(6H)-one], the IC50 is 10 to 1000 nM.

Consider `C/C=C/C(=O)N1CCC[C@@H](n2cc(-c3ccc(Oc4c(F)cccc4F)cc3)c3c(N)n[nH]c(=O)c32)C1` [Example 116, 4-amino-3-[4-(2,6-difluorophenoxy)phenyl]-1-[(3R)-1-[(E)-but-2-enoyl]-3-piperidyl]-6H-pyrrolo[2,3-d]pyridazin-7-one], for which the IC50 lay in the range of 10 to 1000 nM.

For the molecule `CN(C)C/C=C/C(=O)N1CCC[C@@H](n2cc(-c3ccc(Oc4ccccc4)c(F)c3)c3c(N)n[nH]c(=O)c32)C1` [Example 75, 4-amino-1-[(3R)-1-[(E)-4-(dimethylamino)but-2-enoyl]-3-piperidyl]-3-(3-fluoro-4-phenoxy-phenyl)-6H-pyrrolo[2,3-d]pyridazin-7-one], the IC50 was not above 10 nM.

In the case of `CC#CC(=O)N1CC[C@@H](n2cc(-c3ccc(Oc4ccccc4F)cc3)c3c(N)n[nH]c(=O)c32)C1` [Example 95, (R)-4-amino-1-(1-(but-2-ynoyl)pyrrolidin-3-yl)-3-(4-(2-fluorophenoxy)phenyl)-1H-pyrrolo[2,3-d]pyridazin-7(6H)-one], the IC50 was 10 to 1000 nM.

`C=CC(=O)N1CC[C@@H](n2cc(-c3ccc(Oc4ccccc4)cc3)c3c(N)n[nH]c(=O)c32)C1` [Example 4, 4-amino-3-(4-phenoxyphenyl)-1-[(3R)-1-prop-2-enoylpyrrolidin-3-yl]-6H-pyrrolo[2,3-d]pyridazin-7-one]: the IC50 was 10 to 1000 nM.

Regarding `C=CC(=O)N1CCC[C@@H](n2nc(-c3ccc(Oc4ccccc4F)cc3)c3c(N)n[nH]c(=O)c32)C1` [Example 109, (R)-1-(1-acryloylpiperidin-3-yl)-4-amino-3-(4-(2-fluorophenoxy)phenyl)-1H-pyrazolo[3,4-d]pyridazin-7(6H)-one], the IC50 was 10 to 1000 nM.

On to `CN(C)C/C=C/C(=O)N1CCC[C@@H](n2cc(-c3ccc(Oc4ccccc4Cl)cc3)c3c(N)n[nH]c(=O)c32)C1` [Example 71, 4-amino-3-[4-(2-chlorophenoxy)phenyl]-1-[(3R)-1-[(E)-4-(dimethylamino)but-2-enoyl]-3-piperidyl]-6H-pyrrolo[2,3-d]pyridazin-7-one], for which the IC50 was not above 10 nM.

For the molecule `CN(C)C/C=C/C(=O)N1CCC[C@@H](n2cc(-c3ccc(Oc4ccccc4F)cc3)c3c(N)n[nH]c(=O)c32)C1` [Example 57, 4-amino-1-[(3R)-1-[(E)-4-(dimethylamino)but-2-enoyl]-3-piperidyl]-3-[4-(2-fluorophenoxy)phenyl]-6H-pyrrolo[2,3-d]pyridazin-7-one], the IC50 is not above 10 nM.
